Data as given in US10017542B2, “Antimicrobial peptides and methods of use thereof” (priority 2015, dated 2018).
Where a SMILES comes first, the peptide text is derived from it. [ ]: non-standard residue; d: D form. Orn = NCCC[C@H](N)C(=O)O

Key:
B. thailandensis = assay: microbe, parasite or virus in culture; settings: Burkholderia thailandensis, 3 h
Pseudomonas Xen5 = assay: Antibacterial activity, microtiter dilution method; type: cell-based; settings: 24 hours, 37 degrees
A. baumanii = settings: 24 h
Procedure: (§1) Briefly, cells were grown overnight in media specified for each strain, and were diluted in the same media. Serial dilutions of the peptides were added to microtiter plates in a volume of 50 ul, followed by the addition of 50 ul of bacteria or fungi, 5×10^5 CFU/ml. Plates were incubated at 37 degrees for 24 hours and the Minimum Inhibitory Concentrations (MICs) were determined as the lowest peptide concentration that inhibited 50% of bacterial growth.

E. coli = settings: 24 h
Procedure: (§2) Measurement of antimicrobial and anti-fungal activity was determined by a standard micrometer dilution method. Briefly, cells were grown overnight in media specified for each strain, and were diluted in the same media. Serial dilutions of the peptides were added to microtiter plates in a volume of 50 ul, followed by the addition of 50 ul of bacteria or fungi, 5×10^5 CFU/ml. Plates were incubated at 37 degrees for 24 hours and the Minimum Inhibitory Concentrations (MICs) were determined as the lowest peptide concentration that inhibited 50% of bacterial growth.

E. cloaca = settings: 24 h
Procedure: as §2

[1] = test system: bacterial isolates of Table 7 (A. baumanii, E. coli, E. cloaca, Pseudomonas, Staphylococcus)
Procedure: as §1

[2] = test system: all bacteria tested in Table 9; assay: In vitro bactericidal activity screening, average across all bacteria; type: cell-based; settings: average value across all bacteria
[3] = test system: Burkholderia cepacia strain Toronto (B.c.); assay: In vitro bactericidal activity screening, endpoint titration; settings: last concentration giving greater than two-logs reduction in CFU vs. saline control, 10^6 CFU/ml, 37° C.
[4] = test system: Actinobacillus actinomycetemcomitans strain A7154 (A.a.); assay: as above; settings: last concentration giving greater than two-logs reduction in CFU vs. saline control
[5] = test system: Fusobacterium nucleatum strain 1594 (F.n.); assay: as above; settings: last concentration giving greater than two-logs reduction in CFU vs. saline control
[6] = test system: Escherichia coli strain (E.c.); assay: as above; settings: last concentration giving greater than two-logs reduction in CFU vs. saline control
[7] = test system: Pseudomonas aeruginosa strain (P.a.); assay: as above; settings: last concentration giving greater than two-logs reduction in CFU vs. saline control

Molecule	EC50 (B. thailandensis) [µM]	IC50 (Pseudomonas Xen5) [µM]	IC50 (A. baumanii) [µM]	IC50 (E. coli) [µM]	IC50 (E. cloaca) [µM]	IC50 [1] [µM]	Two-log Reduction Concentration Ave. [2] [μM]	Two-log Reduction Concentration [3] [μM]	Two-log Reduction Concentration [4] [μM]	Two-log Reduction Concentration [5] [μM]	Two-log Reduction Concentration [6] [μM]	Two-log Reduction Concentration [7] [μM]
CC(C)(O/N=C(\C(=O)N[C@@H]1C(=O)N2C(C(=O)[O-])=C(C[n+]3ccccc3)CS[C@H]12)c1csc(N)n1)C(=O)O [Ceftazidime]	39.1											
CC[C@H](C)[C@H](NC(=O)[C@H](CCCNC(=N)N)NC(=O)[C@H](C)NC(=O)[C@H](CC(C)C)NC(=O)[C@@H](N)CCCNC(=N)N)C(=O)N[C@H](C(=O)NCC(=O)NCC(=O)N[C@@H](Cc1ccccc1)C(=O)N[C@@H](C)C(=O)N[C@@H](CCCN)C(=O)N[C@@H](CCCN)C(=O)N[C@@H](Cc1ccccc1)C(=O)N[C@@H](C)C(=O)N[C@@H](CCCN)C(=O)N[C@@H](CCCN)C(=O)N[C@@H](Cc1ccccc1)C(=O)N[C@@H](CCCN)C(=O)N[C@@H](CCCN)C(=O)N[C@@H](Cc1ccccc1)C(=O)N[C@@H](C)C(=O)N[C@@H](CCCN)C(=O)N[C@@H](CCCN)C(=O)N[C@@H](Cc1ccccc1)C(=O)N[C@@H](C)C(=O)N[C@@H](CCCN)C(=O)N[C@@H](Cc1ccccc1)C(=O)N[C@@H](C)C(=O)N[C@@H](Cc1ccccc1)C(=O)N[C@@H](C)C(=O)N[C@@H](Cc1ccccc1)C(=O)O)C(C)C [RP500, RLARIVGGFAOOFAOOFOOFAOOFAOFAFAF] (H-RLARIVGGFA[Orn][Orn]FA[Orn][Orn]F[Orn][Orn]FA[Orn][Orn]FA[Orn]FAFAF-OH; N-terminus and C-terminus assumed)		0.5	7.6	3.8	7.6	5.3						
FAFAFKAFKKAFKKFKKAFKKAFGPGRFAKKFAKKFKKFAKKFAKFAFAF [RP-433]							0.46	0.12	0.10	1.25	0.63	0.90
FARKFLKKFKRFAKKFVRFAFAF [SEQ ID NO: 6]							1.67	1.25	0.40	3.75	0.63	
